The values that follow come from patent publication US11884708B2, “Stapled peptide inhibitors of nemo as potential anti-inflammatory and anti-cancer drugs” (INSTITUT PASTEUR, priority 2015, dated 2024).

Where a SMILES comes first, the peptide text is derived from it. Bridges are numbered along the chain shown (N, C = ends). [ ]: non-standard residue; d: D form. The star is where a group is joined. Succinimide(1-Et,3-yl) = CCN1C(=O)CC(*)C1=O; R8 = C=CCCCCCC[C@@](C)(N)C(=O)O; S5 = C=CCCC[C@](C)(N)C(=O)O; code Z = not defined here; Aib = CC(C)(N)C(=O)O; CH2F = FC* Bounds are passed on as bounds.

In series [1] the test system is HLY1 (ABC-DLBCL, MALT1 independent). Briefly: Cell death assay (CellTiter-Blue resazurin). Format: cell-based, human. Conditions: for cell death: HLY1, 7 h; for EC50: Homo sapiens. On the procedure: (§1) The CellTiter-Blue® Cell Viability kit assay purchased from Promega was used to assess the cell death induced by NEMO stapled peptides in ABC- and GCB-DLBCL cell lines. […] Cells were considered 100% death when the fluorescence intensity value was the same as the one with the medium alone or with the cells treated with the cycloheximide protein synthesis inhibitor at 25 μM (Sigma Aldrich).
(§2) For each time point measurement 100 μl of cell samples were withdrawn at different incubation times (7 h, 24 h and 48 h) and subjected to resazurin assay for one hour at 37° C. in the CO2 incubator by adding and mixing for 10 sec 20 μl of resazurin. Fluorescence measurements were performed with a TECAN infinite F500 instrument at 560 nm excitation wavelength and 590 nm emission wavelength. Viability of cells at time 0 was determined just before adding compound and all experiments were performed in duplicate.
(§3) The percentage of cell death was calculated according to the following formula: (1−((RFUobs−blank)/(RFU100% viability−blank))*100), where RFUobs corresponds to the cells viability observed in the presence of compound, RFU100% viability, the initial cells viability and blank the background fluorescence measured using the medium alone.
(§4) The EC50 value was calculated by plotting the percentage of cell death as function of the compound concentration and fitting the experimental curve with the following formula: (A*P0)/(EC50+P0), where A is the amplitude of fluorescence, P0 is the peptide concentration.
(§5) To compare the inhibition efficiency of BA-UBI-SAHND306-Q313 with IKK inhibitors (MLN120B, MedChem Express) or IKKα/β inhibitor (TPCA1, R&D systems), 25,000 DLBCL cells (OCI-Ly3) were incubated for 7 h with an increasing concentration of IKK inhibitors ranging from 0 to 50 μM, and the amount of cell death was then determined using CellTiter-Blue® Cell Viability kit assay. For the MI-2 MALT1 inhibitor (Fontan et al., 2012, Cancer cell 22, 812-824), similar experiments were carried out in MALT dependent (OCI-Ly3) and independent (HLY1) DLBCL cells using a 0-25 μM range.
On the technique in general: Alamar Blue is a resazurin reagent that responds to reducing activity.

The subject of series [2] is OCI-Ly3 (ABC-DLBCL, MALT1 dependent). Briefly: Cell death assay (CellTiter-Blue resazurin). Format: cell-based, human. On the procedure:
as §1, §2, §3, §4, §5

In a further series the target is CC2-LZ domain of NEMO (Mus musculus, UniProt O88522). Briefly: Fluorescence anisotropy/polarization binding assay.
Sequence of CC2-LZ domain of NEMO (O88522 242-343 limits assumed): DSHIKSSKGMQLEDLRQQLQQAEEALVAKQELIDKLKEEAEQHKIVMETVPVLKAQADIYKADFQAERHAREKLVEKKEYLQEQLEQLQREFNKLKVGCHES
For the next series, the target named is NF-κB pathway (Mus musculus, UniProt O88522). Briefly: NF-κB inhibition assay, LPS-stimulated 70Z3-C3 lacZ reporter cells. Format: cell-based.
Sequence of NF-κB pathway (O88522 whole entry): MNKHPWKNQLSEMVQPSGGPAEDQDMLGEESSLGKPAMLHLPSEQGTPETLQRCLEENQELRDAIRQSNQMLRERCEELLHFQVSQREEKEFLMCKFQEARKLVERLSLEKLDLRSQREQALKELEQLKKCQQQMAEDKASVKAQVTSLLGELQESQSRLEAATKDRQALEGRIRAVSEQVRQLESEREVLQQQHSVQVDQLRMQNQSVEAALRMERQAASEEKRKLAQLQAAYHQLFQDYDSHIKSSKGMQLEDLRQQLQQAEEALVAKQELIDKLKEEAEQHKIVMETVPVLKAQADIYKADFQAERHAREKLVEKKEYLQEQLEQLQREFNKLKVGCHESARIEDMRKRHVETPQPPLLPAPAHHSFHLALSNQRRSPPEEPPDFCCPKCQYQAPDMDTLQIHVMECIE
Another series in a line: circular dichroism. The note with it: 10 mM sodium phosphate; pH 7; 1 °C; 50 uM.

As for `COCCOc1nc(-c2ccc(Cl)c(Cl)c2)n(-c2ccc(NC(=O)CCl)cc2)n1` [MI-2], the cell death entry in series [1] is listed as “more resistant”. For the same molecule, a half-maximal effect in series [2] (OCI-Ly3, 7 h) (EC50) was put at 2.5 ± 0.05 µM. In the case of `CC(=O)N[C@@H](CSC1CC(=O)N(CCNC(=O)CCC2=[N+]3C(=Cc4c(C)cc(C)n4[B-]3(F)F)C=C2)C1=O)C(=O)N[C@@H](CCC(=O)O)C(=O)N[C@@H](CC(C)C)C(=O)N[C@@H](C)C(=O)N[C@@H](CCC(N)=O)C(=O)N[C@@H](CC(C)C)C(=O)N[C@@H](CCC(N)=O)C(=O)N[C@@H](C)C(=O)N[C@@H](CCC(=O)O)C(=O)N[C@@H](CC(C)C)C(=O)N[C@@H](CC(=O)O)C(=O)N[C@]1(C)CCCCCCC=CCCC[C@@](C)(C(=O)N[C@@H](CC(=O)O)C(=O)N[C@@H](CCCCN)C(=O)N[C@@H](CCC(N)=O)C(=O)N[C@@H](CCC(=O)O)C(=O)N[C@@H](CC(C)C)C(=O)N[C@@H](CCCNC(=N)N)C(=O)N[C@@H](CCCCN)C(=O)N[C@@H](CC(C)C)C(N)=O)NC(=O)[C@H](CCC(N)=O)NC(=O)[C@H](C(C)C)NC(=O)[C@H](C(C)C)NC(=O)[C@H](C)NC(=O)[C@H](CCC(N)=O)NC(=O)[C@H](C(C)C)NC1=O` (single isomer, unassigned) [Co-SAHN I307-A314, ELAQLQAELDXVQAVVQXDKQELRKL, reference compound], the “binding to CC2-LZ, in words” value on CC2-LZ domain of NEMO is listed as “does not interact”. Moreover, on CC2-LZ domain of NEMO (fixed peptide concentration 10 μM, read-out: Binding affinity (FP) at 10 μM), the Kd was greater than 10000 µM. Also, the “IC 50 NF-κB inhibition” value on NF-κB pathway (70Z3-C3 cells, 2 h peptide then LPS 4 h, N.I = No inhibition observed) is on record as “N.I*”. The “NF-κB inhibition activity, in words” value on NF-κB pathway (LPS-induced NF-κB activation) is given as “does not inhibit”. The cell death entry in series [2] (OCI-Ly3, 48 h) is recorded as “no effect of cell death”.

With `CC[C@H](C)[C@@H]1NC(=O)[C@H](CC(=O)O)NC(=O)[C@H](C)NC(=O)[C@H](CCC(N)=O)NC(=O)[C@](C)(NC(=O)[C@H](CCCCN)NC(=O)[C@H](CC(C)C)NC(=O)[C@H](CSC2CC(=O)N(CC)C2=O)NC(C)=O)CCCCCC/C=C/CCC[C@@](C)(C(=O)N[C@@H](CCCNC(=N)N)C(=O)N[C@@H](Cc2ccccc2)C(=O)N[C@@H](CCC(N)=O)C(=O)N[C@@H](C)C(=O)N[C@@H](CCC(=O)O)C(=O)N[C@@H](CCCNC(=N)N)C(=O)N[C@@H](Cc2c[nH]cn2)C(=O)N[C@@H](C)C(=O)N[C@@H](CCCNC(=N)N)C(=O)N[C@@H](CCC(=O)O)C(=O)N[C@@H](CCCCN)C(N)=O)NC(=O)[C@H](CCCCN)NC(=O)[C@H](Cc2ccc(O)cc2)NC1=O` (stereo partly drawn) (Ac-C(Succinimide(1-Et,3-yl))LK[R8]QADIYK[S5]RFQAERHAREK-NH2; staple (E) 4-11), the helicity in the series “circular dichroism” was found to be 80 rel %. Still for that read-out and setting: next, `CCN1C(=O)CC(SC[C@H](NC(C)=O)C(=O)N[C@@H](CC(C)C)C(=O)N[C@@H](CCCCN)C(=O)N[C@@]2(C)CCCC=CCCC[C@@](C)(C(=O)N[C@@H](Cc3ccc(O)cc3)C(=O)N[C@@H](CCCCN)C(=O)N[C@@H](C)C(=O)N[C@@H](CCCNC(=N)N)C(=O)N[C@@H](Cc3ccccc3)C(=O)N[C@@H](CCC(N)=O)C(=O)N[C@@H](C)C(=O)N[C@@H](CCC(=O)O)C(=O)N[C@@H](CCCNC(=N)N)C(=O)N[C@@H](Cc3c[nH]cn3)C(=O)N[C@@H](C)C(=O)N[C@@H](CCCNC(=N)N)C(=O)N[C@@H](CCC(=O)O)C(=O)N[C@@H](CCCCN)C(N)=O)NC(=O)[C@H](CC(=O)O)NC(=O)[C@H](C)NC(=O)[C@H](CCC(N)=O)NC2=O)C1=O` (stereo partly drawn) (Ac-C(Succinimide(1-Et,3-yl))LK[S5]QAD[S5]YKARFQAERHAREK-NH2; staple 4-8): 70 rel %.

On to “Z-Val-Arg-Pro-Arg-fluoromethylketone ({code Z}-VRPR-CH2F; reading uncertain; also: printed as Z-Val-Arg-Pro-Arg-fluoromethylketone) [Z-VRPR-fmk]”, for which the “cell death, in words” value in series [1] (HLY1, for at least 48 h) was “did not induce any cell death”. The cell death entry in series [2] (OCI-Ly3, 48 h) is listed as “very little cell death”. Take `CC[C@H](C)[C@H](NC(=O)[C@H](CC(=O)O)NC(=O)C(C)(C)NC(=O)[C@H](CCC(N)=O)NC(=O)C(C)(C)NC(=O)[C@H](CCCCN)NC(=O)[C@H](CC(C)C)NC(=O)[C@H](CSC1CC(=O)N(CC)C1=O)NC(C)=O)C(=O)N[C@@H](Cc1ccc(O)cc1)C(=O)N[C@@H](CCCCN)C(=O)NC(C)(C)C(=O)N[C@@H](CCCNC(=N)N)C(=O)N[C@@H](Cc1ccccc1)C(=O)N[C@@H](CCC(N)=O)C(=O)NC(C)(C)C(=O)N[C@@H](CCC(=O)O)C(=O)N[C@@H](CCCNC(=N)N)C(=O)N[C@@H](Cc1c[nH]cn1)C(=O)NC(C)(C)C(=O)N[C@@H](CCCNC(=N)N)C(=O)N[C@@H](CCC(=O)O)C(=O)N[C@@H](CCCCN)C(N)=O` (stereo partly drawn) (Ac-C(Succinimide(1-Et,3-yl))LK[Aib]Q[Aib]DIYK[Aib]RFQ[Aib]ERH[Aib]REK-NH2): the helicity in the series “circular dichroism” was found to be 49 rel %. For the molecule `CC[C@H](C)[C@H](NC(=O)[C@H](CC(=O)O)NC(=O)[C@H](C)NC(=O)[C@H](CCC(N)=O)NC(=O)[C@H](C)NC(=O)[C@H](CCCCN)NC(=O)[C@H](CC(C)C)NC(=O)[C@H](CSC1CC(=O)N(CC)C1=O)NC(C)=O)C(=O)N[C@@H](Cc1ccc(O)cc1)C(=O)N[C@@H](CCCCN)C(=O)N[C@@H](C)C(=O)N[C@@H](CCCNC(=N)N)C(=O)N[C@@H](Cc1ccccc1)C(=O)N[C@@H](CCC(N)=O)C(=O)N[C@@H](C)C(=O)N[C@@H](CCC(=O)O)C(=O)N[C@@H](CCCNC(=N)N)C(=O)N[C@@H](Cc1c[nH]cn1)C(=O)N[C@@H](C)C(=O)N[C@@H](CCCNC(=N)N)C(=O)N[C@@H](CCC(=O)O)C(=O)N[C@@H](CCCCN)C(N)=O` (stereo partly drawn) (Ac-C(Succinimide(1-Et,3-yl))LKAQADIYKARFQAERHAREK-NH2), the helicity in “circular dichroism” is 42 rel %. On to `COc1c(Cl)cc2c([nH]c3cnccc32)c1NC(=O)c1cccnc1C` [MLN120B], for which the cell death entry is given as “No cell death” in series [1] and 52% in series [2] (OCI-Ly3, 48 h). Further, the EC50 is 70 ± 2 µM in series [1] (HLY1, 24 h); 78 ± 2 µM in series [1] (HLY1, 48 h); 125 ± 10 µM in series [2] (Homo sapiens, OCI-Ly3, 48 h).

As for `CC[C@H](C)[C@@H]1NC(=O)[C@H](CC(=O)O)NC(=O)[C@H](C)NC(=O)[C@H](CCC(N)=O)NC(=O)[C@](C)(NC(=O)[C@H](CCCCN)NC(=O)[C@H](CC(C)C)NC(=O)[C@H](CSC2CC(=O)N(CC)C2=O)NC(C)=O)CCCCCC/C=C\CCC[C@@](C)(C(=O)N[C@@H](CCCNC(=N)N)C(=O)N[C@@H](Cc2ccccc2)C(=O)N[C@@H](CCC(N)=O)C(=O)N[C@@H](C)C(=O)N[C@@H](CCC(=O)O)C(=O)N[C@@H](CCCNC(=N)N)C(=O)N[C@@H](Cc2c[nH]cn2)C(=O)N[C@@H](C)C(=O)N[C@@H](CCCNC(=N)N)C(=O)N[C@@H](CCC(=O)O)C(=O)N[C@@H](CCCCN)C(N)=O)NC(=O)[C@H](CCCCN)NC(=O)[C@H](Cc2ccc(O)cc2)NC1=O` (stereo partly drawn) (Ac-C(Succinimide(1-Et,3-yl))LK[R8]QADIYK[S5]RFQAERHAREK-NH2; staple (Z) 4-11), the helicity in the series “circular dichroism” stood at 63 rel %. For the molecule `CC[C@H](C)[C@H](NC(=O)[C@H](CC(=O)O)NC(=O)[C@H](C)NC(=O)[C@H](CCC(N)=O)NC(=O)[C@H](C)NC(=O)[C@H](CCCCN)NC(=O)[C@H](CC(C)C)NC(=O)[C@H](CSC1CC(=O)N(CC)C1=O)NC(C)=O)C(=O)N[C@@H](Cc1ccc(O)cc1)C(=O)N[C@@H](CCCCN)C(=O)N[C@@]1(C)CCCC=CCCC[C@@](C)(C(=O)N[C@@H](CCC(=O)O)C(=O)N[C@@H](CCCNC(=N)N)C(=O)N[C@@H](Cc2c[nH]cn2)C(=O)N[C@@H](C)C(=O)N[C@@H](CCCNC(=N)N)C(=O)N[C@@H](CCC(=O)O)C(=O)N[C@@H](CCCCN)C(N)=O)NC(=O)[C@H](CCC(N)=O)NC(=O)[C@H](Cc2ccccc2)NC(=O)[C@H](CCCNC(=N)N)NC1=O` (stereo partly drawn) (Ac-C(Succinimide(1-Et,3-yl))LKAQADIYK[S5]RFQ[S5]ERHAREK-NH2; staple 11-15), the helicity in the series “circular dichroism” is 65 rel %. In the series “circular dichroism”, `CC[C@H](C)[C@@H]1NC(=O)[C@@](C)(NC(=O)[C@H](C)NC(=O)[C@H](CCC(N)=O)NC(=O)[C@H](C)NC(=O)[C@H](CCCCN)NC(=O)[C@H](CC(C)C)NC(=O)[C@H](CSC2CC(=O)N(CC)C2=O)NC(C)=O)CCCC=CCCC[C@@](C)(C(=O)N[C@@H](CCCNC(=N)N)C(=O)N[C@@H](Cc2ccccc2)C(=O)N[C@@H](CCC(N)=O)C(=O)N[C@@H](C)C(=O)N[C@@H](CCC(=O)O)C(=O)N[C@@H](CCCNC(=N)N)C(=O)N[C@@H](Cc2c[nH]cn2)C(=O)N[C@@H](C)C(=O)N[C@@H](CCCNC(=N)N)C(=O)N[C@@H](CCC(=O)O)C(=O)N[C@@H](CCCCN)C(N)=O)NC(=O)[C@H](CCCCN)NC(=O)[C@H](Cc2ccc(O)cc2)NC1=O` (stereo partly drawn) (Ac-C(Succinimide(1-Et,3-yl))LKAQA[S5]IYK[S5]RFQAERHAREK-NH2; staple 7-11) came in with a helicity of 65 rel %.

For orientation: EC50 means the concentration at which the effect is half-maximal. Low readings indicate higher potency in that assay, high ones lower potency in that assay.
